Laboratory results from US7858322B2, “Method of determining inhibition of binding to TRPM7 protein” (NoNo, Inc., priority 2003, dated 2010).

Test system: cultured neurons
Test: Neuronal survival 20 h after 1 h NMDA challenge
Assay type: cell-based
Settings: peptide applied immediately after the NMDA challenge; FIG. 14
Procedure: The sequence of Tat-9cTRPM7 is: [[…] or [[…]-[…]] (SEQ ID NO:258), whereby the first 11 residues correspond to the cell membrane transduction domain of the human immunodeficiency virus type 1 (HIV-1) Tat protein and the last 9 residues correspond to the last 9 amino acids of the C-terminus of human TRPM7 (accession Q96QT4). […] (A) Neuronal survival at 20 h in the indicated concentrations of Tat-9cTRPM7 in the absence of excitotoxic challenge. (B) Neuronal survival 20 h after challenging the cultures for 1 h with the indicated concentration of NMDA. Tat-9cTRPM7 was applied immediately after the NMDA challenge.
The sequence of Tat-9cTRPM7 is: [[…]-[…]; SEQ ID NO:258], whereby the first 11 residues correspond to the cell-membrane transduction domain of the human immunodeficiency virus type 1 (HIV-1) Tat protein and the last 9 residues correspond to the last 9 amino acids of the C-terminus of human TRPM7 (accession Q96QT4). (A) Neuronal survival at 20 h in the indicated concentrations of Tat-9cTRPM7 in the absence of excitotoxic challenge. (B) Neuronal survival 20 h after challenging the cultures for 1 h with the indicated concentration of NMDA. Tat-9cTRPM7 was applied immediately after the NMDA challenge.

Substance: YGRKKRRQRRR-STNSVRLML (YGRKKRRQRRRSTNSVRLML) [Tat-9cTRPM7, HIV-1 Tat transduction domain fused to last 9 amino acids of human TRPM7]
- Neuronal survival 20 h after challenging the cultures for 1 h with NMDA: enhanced survival when challenged with NMDA
